Test: molar heat capacity at constant pressure
Settings: 101.33 kPa, DSC

[Ag+].[Ag+].[S-2] [silver sulfide]
Settings | molar heat capacity at constant pressure [J/K/mol]
299.71 K, Crystal 3 | 73.92
300.71 K, Crystal 3 | 74.02
301.71 K, Crystal 3 | 74.12
302.71 K, Crystal 3 | 74.21
303.71 K, Crystal 3 | 74.31
304.71 K, Crystal 3 | 74.4
305.71 K, Crystal 3 | 74.46
306.71 K, Crystal 3 | 74.53
307.71 K, Crystal 3 | 74.62
308.71 K, Crystal 3 | 74.69
309.71 K, Crystal 3 | 74.77
310.71 K, Crystal 3 | 74.85
311.71 K, Crystal 3 | 74.92
312.71 K, Crystal 3 | 75.14
313.71 K, Crystal 3 | 75.21
314.71 K, Crystal 3 | 75.29
315.71 K, Crystal 3 | 75.36
316.71 K, Crystal 3 | 75.42
317.71 K, Crystal 3 | 75.49
318.71 K, Crystal 3 | 75.53
319.71 K, Crystal 3 | 75.58
320.71 K, Crystal 3 | 75.65
321.71 K, Crystal 3 | 75.71
322.71 K, Crystal 3 | 75.78
323.71 K, Crystal 3 | 75.84
324.71 K, Crystal 3 | 75.9
325.71 K, Crystal 3 | 75.97
326.71 K, Crystal 3 | 76.03
327.71 K, Crystal 3 | 76.09
328.71 K, Crystal 3 | 76.14
329.71 K, Crystal 3 | 76.2
330.71 K, Crystal 3 | 76.26
331.71 K, Crystal 3 | 76.31
332.71 K, Crystal 3 | 76.37
333.71 K, Crystal 3 | 76.42
334.71 K, Crystal 3 | 76.48
335.71 K, Crystal 3 | 76.53
336.71 K, Crystal 3 | 76.58
337.71 K, Crystal 3 | 76.63
338.71 K, Crystal 3 | 76.68
339.71 K, Crystal 3 | 76.74
340.71 K, Crystal 3 | 76.79
341.71 K, Crystal 3 | 76.84
342.71 K, Crystal 3 | 76.89
343.71 K, Crystal 3 | 76.93
344.71 K, Crystal 3 | 76.98
345.71 K, Crystal 3 | 77.03
346.71 K, Crystal 3 | 77.08
347.71 K, Crystal 3 | 77.13
348.71 K, Crystal 3 | 77.18
349.71 K, Crystal 3 | 77.22
350.71 K, Crystal 3 | 77.27
351.71 K, Crystal 3 | 77.32
352.71 K, Crystal 3 | 77.37
353.71 K, Crystal 3 | 77.42
354.71 K, Crystal 3 | 77.46
355.71 K, Crystal 3 | 77.51
356.71 K, Crystal 3 | 77.56
357.71 K, Crystal 3 | 77.61
358.71 K, Crystal 3 | 77.66
359.71 K, Crystal 3 | 77.71
360.71 K, Crystal 3 | 77.76
361.71 K, Crystal 3 | 77.81
362.71 K, Crystal 3 | 77.86
363.71 K, Crystal 3 | 77.91
364.71 K, Crystal 3 | 77.96
365.71 K, Crystal 3 | 78.01
366.71 K, Crystal 3 | 78.07
367.71 K, Crystal 3 | 78.12
368.71 K, Crystal 3 | 78.17
369.71 K, Crystal 3 | 78.23
370.71 K, Crystal 3 | 78.29
371.71 K, Crystal 3 | 78.34
372.71 K, Crystal 3 | 78.4
373.71 K, Crystal 3 | 78.46
374.71 K, Crystal 3 | 78.52
375.71 K, Crystal 3 | 78.58
376.71 K, Crystal 3 | 78.64
377.71 K, Crystal 3 | 78.7
378.71 K, Crystal 3 | 78.76
379.71 K, Crystal 3 | 78.83
380.71 K, Crystal 3 | 78.89
381.71 K, Crystal 3 | 78.96
382.71 K, Crystal 3 | 79.03
383.71 K, Crystal 3 | 79.1
384.71 K, Crystal 3 | 79.17
385.71 K, Crystal 3 | 79.24
386.71 K, Crystal 3 | 79.31
387.71 K, Crystal 3 | 79.39
388.71 K, Crystal 3 | 79.46
389.71 K, Crystal 3 | 79.54
390.71 K, Crystal 3 | 79.62
391.71 K, Crystal 3 | 79.7
392.71 K, Crystal 3 | 79.79
393.71 K, Crystal 3 | 79.87
394.71 K, Crystal 3 | 79.96
395.71 K, Crystal 3 | 80.04
396.71 K, Crystal 3 | 80.13
397.71 K, Crystal 3 | 80.23
398.71 K, Crystal 3 | 80.32
399.71 K, Crystal 3 | 80.41
400.71 K, Crystal 3 | 80.5
401.71 K, Crystal 3 | 80.6
402.71 K, Crystal 3 | 80.69
403.71 K, Crystal 3 | 80.78
404.71 K, Crystal 3 | 80.88
405.71 K, Crystal 3 | 80.98
406.71 K, Crystal 3 | 81.09
407.71 K, Crystal 3 | 81.19
408.71 K, Crystal 3 | 81.3
409.71 K, Crystal 3 | 81.41
410.71 K, Crystal 3 | 81.52
411.71 K, Crystal 3 | 81.63
412.71 K, Crystal 3 | 81.75
413.71 K, Crystal 3 | 81.87
414.71 K, Crystal 3 | 81.99
415.71 K, Crystal 3 | 82.11
416.71 K, Crystal 3 | 82.24
417.71 K, Crystal 3 | 82.37
418.71 K, Crystal 3 | 82.5
419.71 K, Crystal 3 | 82.64
420.71 K, Crystal 3 | 82.77
421.71 K, Crystal 3 | 82.91
422.71 K, Crystal 3 | 83.06
423.71 K, Crystal 3 | 83.2
424.71 K, Crystal 3 | 83.35
425.71 K, Crystal 3 | 83.51
426.71 K, Crystal 3 | 83.66
427.71 K, Crystal 3 | 83.82
428.71 K, Crystal 3 | 83.98
429.71 K, Crystal 3 | 84.15
430.71 K, Crystal 3 | 84.32
431.71 K, Crystal 3 | 84.49
432.71 K, Crystal 3 | 84.66
433.71 K, Crystal 3 | 84.84
434.71 K, Crystal 3 | 85.01
435.71 K, Crystal 3 | 85.19
436.71 K, Crystal 3 | 85.36
437.71 K, Crystal 3 | 85.54
438.71 K, Crystal 3 | 85.72
439.71 K, Crystal 3 | 85.91
440.71 K, Crystal 3 | 86.2
441.71 K, Crystal 3 | 86.6
442.71 K, Crystal 3 | 87.1
443.71 K, Crystal 3 | 87.6
444.71 K, Crystal 3 | 88.38
446.71 K, Crystal 3 | 90.5
447.71 K, Crystal 3 | 92.95
448.71 K, Crystal 3 | 93.65
449.71 K, Crystal 3 | 94.94
461.57 K, Crystal 2 | 90.56
462.57 K, Crystal 2 | 90.49
463.57 K, Crystal 2 | 90.42

— the NIST ThermoML archive (doi:10.1016/j.tca.2017.12.013)
